Data published in publication PMC8305076, “Comprehensive Evaluation of Biological Effects of Pentathiepins on Various Human Cancer Cell Lines and Insights into Their Mode of Action” (International Journal of Molecular Sciences, 2021).
Like-named read-outs stand apart in the source and are kept apart here.

Key:
A-427 = experiment: crystal violet proliferation assay; type: cell-based; settings: Homo sapiens, 96 h, normoxia, read-out: GI50 CV mean
Experimental: (§1) Distinct MTT cell viability and crystal violet cell proliferation assays were performed to assess the cytotoxicity of the compounds 1–6 on 14 human cancer cell lines. In the viability assay, cells with intact mitochondria and thus active dehydrogenases are competent to convert MTT to the corresponding insoluble formazan. The formazan can be photometrically detected after solubilization and allows for indirect conclusions about the viability of the cells as an IC50 value. In the crystal violet assay, cells are stained by the binding of the dye to the chromatin, thus allowing for a quantification of biomass that remains adherent after a treatment in comparison with a control after a specific time. Potency is defined as the growth inhibitory concentration 50% (GI50).
(§2) The antiproliferative effect of the pentathiepins on human cancer cell lines was analyzed by crystal violet assay based on the protocol of a previous publication. […] After dissolving in ethanol, the optical density was measured. Here, 1000 cells (250 for LCLC-103H) in 0.1 mL of medium were seeded per well of a 96 well plate and incubated at standard conditions for 24 h prior to treatment to allow for adhesion of the cells. A serial dilution of the test compounds was prepared in medium, covering final concentrations from 10.0 to 0.04 µM and 0.1 mL of the working solution added to each well in triplicate. Additionally, samples for each cell line were seeded and directly fixed after 24 h to measure the cell density at the beginning of treatment (t0). Fixation was performed by replacing medium with 0.1 mL of a solution containing 1% glutaraldehyde in Dulbecco’s buffer (0.2 g/L KCl, 0.1 g/L MgSO4·7 H2O, 1.55 g/L Na2HPO4·7 H2O, 0.2 g/L KH2HPO4, and 8 g/L NaCl in water) for 20 min. Plates were stored in 0.1 mL of Dulbecco’s buffer until further processing. After 96 h of treatment, the same fixation process was applied to the plates containing cells and test compounds. To stain the cells, 0.1 mL of an aqueous solution of crystal violet (0.02%) was added per well for 20 min, then discarded and the plates afterwards rinsed in clear water for 30 min. The dye was extracted in 50 µL of ethanol per well during 2 h of shaking. The plates were read at λ = 570 nm using a SpectraMax 384plus (Molecular Devices, Sunnyvale, CA, USA), and the proliferation of the treatment conditions was calculated in relation to a solvent control sample after subtracting the background value of the T0-plates. The GI50 (half-maximal growth inhibitory concentration) was calculated via nonlinear regression followed by interpolation of the dose–response graphs in Prism 7 (GraphPad, San Diego, CA, USA).

A2780cis = experiment: crystal violet proliferation assay; type: cell-based; settings: Homo sapiens, 96 h, normoxia, read-out: GI50 CV mean
Experimental: as §1, §2

A2780 = experiment: crystal violet proliferation assay; type: cell-based; settings: Homo sapiens, 96 h, normoxia, read-out: GI50 CV mean
Experimental: as §1, §2

DanG = experiment: crystal violet proliferation assay; type: cell-based; settings: Homo sapiens, 96 h, normoxia, read-out: GI50 CV mean
Experimental: as §1, §2

HAP-1.KO.GPx1 = experiment: crystal violet proliferation assay; type: cell-based; settings: Homo sapiens, 96 h, normoxia, read-out: GI50 CV mean
Experimental: as §1, §2

HAP-1 = experiment: crystal violet proliferation assay; type: cell-based; settings: Homo sapiens, HAP1, 96 h, normoxia, read-out: GI50 CV mean
Experimental: as §1, §2

Kyse-70 = experiment: crystal violet proliferation assay; type: cell-based; settings: Homo sapiens, 96 h, normoxia, read-out: GI50 CV mean
Experimental: as §1, §2

LCLC-103H = experiment: crystal violet proliferation assay; type: cell-based; settings: Homo sapiens, 96 h, normoxia, read-out: GI50 CV mean
Experimental: as §1, §2

PATU-8902 = experiment: crystal violet proliferation assay; type: cell-based; settings: Homo sapiens, 96 h, normoxia, read-out: GI50 CV mean
Experimental: as §1, §2

RT-112 = experiment: crystal violet proliferation assay; type: cell-based; settings: Homo sapiens, 96 h, normoxia, read-out: GI50 CV mean
Experimental: as §1, §2

RT-4 = experiment: crystal violet proliferation assay; type: cell-based; settings: Homo sapiens, 96 h, normoxia, read-out: GI50 CV mean
Experimental: as §1, §2

Siso = experiment: crystal violet proliferation assay; type: cell-based; settings: Homo sapiens, 96 h, normoxia, read-out: GI50 CV mean
Experimental: as §1, §2

YAPC = experiment: crystal violet proliferation assay; type: cell-based; settings: Homo sapiens, 96 h, normoxia, read-out: GI50 CV mean
Experimental: as §1, §2

MCF-7 = experiment: crystal violet proliferation assay; type: cell-based, human; settings: normoxia, read-out: GI50 CV mean
Experimental: as §1, §2

seven cancer cell lines = experiment: DCFDA flow cytometric ROS assay, acute; type: cell-based, human; settings: 25 µM, 15 min, vs solvent control

GI50 (A2780cis) [nM]	GI50 (A2780) [nM]	GI50 (MCF-7; 96 h) [nM]	GI50 (MCF-7; Homo sapiens, MCF7, 96 h) [nM]	SMILES	GI50 (A-427) [nM]	GI50 (DanG) [nM]	GI50 (HAP-1.KO.GPx1) [nM]	GI50 (HAP-1) [nM]	GI50 (Kyse-70) [nM]	GI50 (LCLC-103H) [nM]	GI50 (PATU-8902) [nM]	GI50 (RT-112) [nM]	GI50 (RT-4) [nM]	GI50 (Siso) [nM]	GI50 (YAPC) [nM]	intracellular ROS levels (seven cancer cell lines)
228	236	209	210	CCOc1c2c(c3cnc4[nH]c(-c5ccc(OC)cc5)cc4n13)SSSSS2 [Compound 1, 11-Ethoxy-2-(4-methoxyphenyl)-3H-[1,2,3,4,5]pentathiepino[6′,7′:3,4]pyrrolo[1,2-a]pyrrolo[2,3-e]pyrazine]	306	340	313	339	264	441	480	465	373	256	405	did not change the intracellular ROS levels in any of the cell lines
234	164	–	384	CCOc1c2c(c3ccc(C(=O)N4CCCCC4)cn13)SSSSS2 [Compound 2, (6-Ethoxy-[1,2,3,4,5]pentathiepino[6,7-a]indolizin-9-yl)(piperidinyl)methanone]	401	644	173	161	409	552	659	559	1520	423	628	burst of ROS in all cell lines
88	55	–	153	CCOc1c2c(c3ccc(C(=O)N4CCOCC4)cn13)SSSSS2 [Compound 3, (6-Ethoxy-[1,2,3,4,5]pentathiepino[6,7-a]indolizin-9-yl)(morpholino)methanone]	142	382	68	64	142	128	257	246	193	166	350	burst of ROS in all cell lines
173	106	–	293	CCOc1c2c(c3ccc(C(=O)N(CC)CC)cn13)SSSSS2 [Compound 4, 6-Ethoxy-N,N’-diethyl-[1,2,3,4,5]pentathiepino[6,7-a]indolizine-9-carboxamide]	310	459	116	84	284	306	471	469	445	381	608	burst of ROS in all cell lines
142	92	–	248	CCOc1c2c(c3ccc(C(=O)N4CCN(C(=O)c5ccc(F)cc5)CC4)cn13)SSSSS2 [Compound 5, (6-Ethoxy-[1,2,3,4,5]pentathiepino[6,7-a]indolizin-9-yl)(4-(4-fluorobenzoyl)piperazinyl)methanone]	320	398	144	120	181	232	340	384	358	369	411	burst of ROS in all cell lines
512	538	–	458	CCOc1c2c(c3ccc(C(=O)N4CCN(S(=O)(=O)c5ccc(C)cc5)CC4)cn13)SSSSS2 [Compound 6, (6-Ethoxy-[1,2,3,4,5]pentathiepino[6,7-a]indolizin-9-yl)(4-tosylpiperazinyl)methanone]	352	711	524	507	481	646	952	1100	835	597	1170	only in three of the panel
